According to PMC4254748 (Science (New York, N.Y.), 2014):

Legend:
neo1Δ/NEO1 strain = assay: Growth of the neo1Δ/NEO1 strain; type: cell-based, yeast; conditions: OD600 for 24 hours
[1] = test system: yeast heterozygous and homozygous deletion strains; assay: HIP/HOP chemogenomic fitness profiling; type: cell-based; conditions: for Chemogenomic response signature induced: HIPHOP profile
[2] = test system: immortalized human leukemia cells; assay: Mitochondrial effects in immortalized human leukemia cells; type: cell-based; conditions: fig. S13

How did the “Induction of NEO1 haploinsufficiency” value (neo1Δ/NEO1 strain) turn out when CC/C(=C(\c1ccccc1)c1ccc(OCCN(C)C)cc1)c1ccccc1 [Tamoxifen] was run?
The value was “Tamoxifen-induced NEO1 haploinsufficiency”.

With CO/C1=C\C(C)=C\[C@@H](C)[C@@H](O)[C@@H](C)C/C(C)=C/C=C/[C@H](OC)[C@@H]([C@@H](C)[C@@H](O)[C@H](C)[C@@]2(O)C[C@@H](O)[C@H](C)[C@@H](C(C)C)O2)OC1=O [bafilomycin A] as the compound, how does the “Effect on tamoxifen-induced NEO1 haploinsufficiency” value (neo1Δ/NEO1 strain) read?
Its value is “rescued”.

For CCCCNC(=O)n1c(NC(=O)OC)nc2ccccc21 [benomyl], which “Chemogenomic response signature induced” value [1] is on record?
Its value is “induced a signature containing tubulin biogenesis and SWR1 complex genes”.

With OC(Cn1cncn1)(Cn1cncn1)c1ccc(F)cc1F [fluconazole] as the compound, how does the “HIP hit / strain with largest fitness defect” value ([1]; HIP profile) read?
Its value is “Erg11Δ/ERG11 strain represents a “hit””.

How did the “Chemogenomic response signature induced” value [1] turn out when COC(=O)Nc1nc2ccc(C(=O)c3cccs3)cc2[nH]1 [nocodazole] was run?
Its value is “induced a signature containing tubulin biogenesis and SWR1 complex genes”.

For Oc1ccc(Cl)cc1Cc1cc(Cl)cc(Cc2cc(Cl)ccc2O)c1O [trichlorophene], which “Generation of mitochondrial reactive oxygen species” value [2] is on record?
Its value is “increased”.

And the Reserve oxygen capacity [2]?
The Reserve oxygen capacity was “reduction”.

What about the “Chemogenomic response signature induced” value [1] of the same compound?
Its value is “induced mitochondrial stress”.
